Laboratory results taken from article PMC6290777, “Inhalation of the prodrug PI3K inhibitor CL27c improves lung function in asthma and fibrosis” (Nature Communications, 2018).

Columns and labels:
[1] = system: human lung fibroblasts (HLF); assay: Cell survival of human lung fibroblasts (CellTiter-Glo); format: cell-based; settings: TGF-β 10 ng/ml, 48 hours; CL27c 1 and 10 µM
Method: Human lung fibroblast cell culture
Two separate human lung fibroblast cell lines isolated from IPF patients were used: LL97a derived from a person (ATCC, Manassas, USA) and DHLF-IPF (#CC-7231, Lonza, Switzerland). Control cell lines were CCD-16Lu, obtained from a person that died of astrocytoma –a disease unrelated to IPF - (ATCC) and NHLF (#CC-2512; Lonza). LL97a and CCD-16Lu cells were cultured in Dulbecco's modified Eagles medium (DMEM, Sigma Aldrich, Dorset, UK). Media was supplemented with penicillin/streptomycin (100 U/ml, Thermo-Fischer, Germany) and 10% fetal bovine serum (FBS, Thermo-Fischer, Germany). Cells from Lonza were cultured in the FGMTM (#CC-3132, Lonza). […]
Caliper based assay, the reaction was terminated by addition of EDTA buffer. Substrate and product were separated and quantified electrophoretically using the microfluidic-based and the assay plate was read on Caliper LabChip 3000 Drug Discovery System from Caliper Life Sciences (Walthan, MA, USA). ADP Glo was another method of detection used for some kinase assays where data was obtained by quantifying the intensity of luminescence. For ADP Glo based assay, the reaction was terminated by applying the Promega ADP Glo Kinase Assay kit and the assay plate was read on a LJL Biosystems Analyst HT. […]

[2] = system: Akt phosphorylation (Ser473) in murine neutrophils; assay: Akt phosphorylation in primary neutrophils stimulated with C5a; format: cell-based, mouse; settings: C5a 25 nM
Method: Neutrophils were obtained from bone marrow isolated from femurs and tibias of C57BL/6J mice. Isolated bone marrow cells were centrifuged 12 min at 260× g and resuspended in 2 ml of physiologic salt solution and neutrophils were subsequently isolated after centrifugation (30 min at 1100× g, 4 °C without brake) through 3 Percoll gradients (from bottom to top: solution B, 75% of a 90% Percoll and 10% HBSS stock solution; solution C, 64% of a 90% Percoll and 10% HBSS stock solution; solution D 52% of a 90% Percoll and 10% HBSS stock solution). Once collected at the interface between the solution B and solution C, the cells were washed three times with 10 ml of physiologic salt solution and centrifuged for 5 min at 260 × g, 4 °C and pretreated for 1 h with CL27c at different concentration. After stimulation with C5a protein were extracted with Laemnli buffer.
For all cell types, phosphorylated Akt (P-Akt, Ser 473, 1:100, Cell Signaling Technology #4060) production was detected by western blot analysis and quantified with ChemiDoc™ XRS system. P-Akt signals are normalized on endogenous. […] To derive the EC50, all data were plotted on a dose response curve (Graph Pad software) and the EC50 was calculated by using the non-linear regression fit (equation [log agonist] vs response–variable slope). […]
panel). […] The respective EC50 was calculated by using nonlinear

COC(=O)c1cccc(Cn2cc(-c3cccc4c(=O)cc(N5CCOCC5)[nH]c34)nn2)c1 [CL27c]
survival of HLF lines [1]: reduced survival at 1 and 10 µM | Akt/PKB phosphorylation [2]: readily reduced Akt/PKB phosphorylation
